“And” between values parts separate entries of the source, which are not always exact repeats. Equal values may be shown once. Inconclusive results and toxic doses are left out.

The test system of the assay is BDF1 mice, P388 leukemia (terephthalanilide-resistant), survival T/C. As to the kind of experiment: NCI In Vivo Anticancer Drug Screen. Data for tumor model P388 Leukemia resistant to A Terephthalanilide; NSC 38280 (intraperitoneal) in B6D2F1 (BDF1) mice. The following applies: endpoint: median survival time, higher = longer survival. As for the experimental part:
The antitumor activity of compounds was measured in mice bearing transplantable tumors. Survival or tumor size were measured and the results are expressed as the measurement made in the treated group (T) divided by the measurement made in the vehicle treated control group (C). The tumor model used in this assay is P388 Leukemia resistant to A Terephthalanilide; NSC 38280 (intraperitoneal) in B6D2F1 (BDF1) mice

[1] abbreviates: dose: 25.0 mg/kg/injection, schedule: Q01DX010 (ip), vehicle: saline.
Setting [2] is: dose: 200.0 mg/kg/injection, schedule: Q01DX010 (ip), vehicle: saline.
[3] abbreviates: dose: 40.0 mg/kg/injection, schedule: Q01DX010 (ip), vehicle: saline.
Where [4] appears, read: dose: 20.0 mg/kg/injection, schedule: Q01DX010 (ip), vehicle: saline.
[5] abbreviates: dose: 10.0 mg/kg/injection, schedule: Q01DX010 (ip), vehicle: saline.
The mark [6] stands for this setting: dose: 5.0 mg/kg/injection, schedule: Q01DX010 (ip), vehicle: saline.
Where [7] appears, read: dose: 18.8 mg/kg/injection, schedule: Q01DX010 (ip), vehicle: saline.
Setting [8] is: dose: 37.5 mg/kg/injection, schedule: Q01DX010 (ip), vehicle: saline.
Where [9] appears, read: dose: 75.0 mg/kg/injection, schedule: Q01DX010 (ip), vehicle: saline.
Setting [10] is: dose: 150.0 mg/kg/injection, schedule: Q01DX010 (ip), vehicle: saline.
[11] abbreviates: dose: 62.5 mg/kg/injection, schedule: Q01DX010 (ip), vehicle: saline.
Where [12] appears, read: dose: 125.0 mg/kg/injection, schedule: Q01DX010 (ip), vehicle: saline.
Where [13] appears, read: dose: 250.0 mg/kg/injection, schedule: Q01DX010 (ip), vehicle: saline.

Regarding `C[C@]12C=CC(=O)C=C1CC[C@@H]1[C@@H]2C(=O)C[C@@]2(C)[C@H]1CC[C@]2(O)C(=O)CO`, the T/C runs as follows: (dose: 0.12 mg/kg/injection, schedule: Q01DX Z (sc), vehicle: steriod suspending solution) 100 % of control; (dose: 12.5 mg/kg/injection, schedule: Q01DX Z (sc), vehicle: steriod suspending solution) 104 % of control; (dose: 25.0 mg/kg/injection, schedule: Q01DX010 (sc), vehicle: steriod suspending solution) 105 % of control; (dose: 25.0 mg/kg/injection, schedule: Q01DX Z (sc), vehicle: steriod suspending solution) 100 % of control and 109 % of control; (dose: 50.0 mg/kg/injection, schedule: Q01DX Z (sc), vehicle: steriod suspending solution) 100 % of control; (dose: 100.0 mg/kg/injection, schedule: Q01DX010 (sc), vehicle: steriod suspending solution) 88 % of control. Further, the T/C (dose: 200.0 mg/kg/injection, schedule: Q01DX010 (sc), vehicle: steriod suspending solution) is 88 % of control.
Regarding `Nc1cc(C(=O)Nc2ccc(C3=NCCN3)cc2)cc(C(=O)Nc2ccc(C3=NCCN3)cc2)c1`, the T/C (dose: 16.0 mg/kg/injection, schedule: Q01DX010 (ip), vehicle: saline) is 111 % of control and the T/C (dose: 64.0 mg/kg/injection, schedule: Q01DX010 (ip), vehicle: saline) was 183 % of control.
Consider `Nc1ncnc2[nH]ncc12`, for which the T/C (dose: 1.5 mg/kg/injection, schedule: Q01DX010 (ip), vehicle: saline) was 90 % of control and 95 % of control; the T/C (dose: 3.0 mg/kg/injection, schedule: Q01DX010 (ip), vehicle: saline) is 90 % of control; the T/C (dose: 6.0 mg/kg/injection, schedule: Q01DX010 (ip), vehicle: saline) was 90 % of control and 95 % of control; the T/C (dose: 12.0 mg/kg/injection, schedule: Q01DX010 (ip), vehicle: saline) was 90 % of control and 100 % of control.
With `O=C(Nc1ccc(C2=NCCN2)cc1)c1ccc(C(=O)Nc2ccc(C3=NCCN3)cc2)c(NC(=O)c2ccc(C(=O)Nc3cc(C(=O)Nc4ccc(C5=NCCN5)cc4)ccc3C(=O)Nc3ccc(C4=NCCN4)cc3)cc2)c1`, the T/C runs as follows: under setting [1], 100 % of control; (dose: 50.0 mg/kg/injection, schedule: Q01DX010 (ip), vehicle: saline) 94 % of control; (dose: 100.0 mg/kg/injection, schedule: Q01DX010 (ip), vehicle: saline) 94 % of control; under setting [2], 100 % of control.
For the molecule `NC(Cc1ccc(N(CCCl)CCCl)cc1)C(=O)O` (centres undefined), the T/C (dose: 2.0 mg/kg/injection, schedule: Q01DX010 (ip), vehicle: other) was 163 % of control and the T/C (dose: 4.0 mg/kg/injection, schedule: Q01DX010 (ip), vehicle: other) was 100 % of control.
Consider `O=C(Nc1ccc(C2=NCCN2)cc1)c1ccc(NC(=O)c2ccc(C3=NCCN3)cc2)cc1`, for which the T/C is, setting by setting: (dose: 18.0 mg/kg/injection, schedule: Q01DX010 (ip), vehicle: saline) 100 % of control; (dose: 27.0 mg/kg/injection, schedule: Q01DX010 (ip), vehicle: saline) 100 % of control; under setting [3], 100 % of control; (dose: 60.0 mg/kg/injection, schedule: Q01DX010 (ip), vehicle: saline) 100 % of control.
`OCC1OC(n2cnc3c(=S)nc[nH]c32)C(O)C1O` (centres undefined): the T/C is 90 % of control and 111 % of control under setting [4]; 100 % of control and 105 % of control under setting [3]; 116 % of control (dose: 80.0 mg/kg/injection, schedule: Q01DX010 (ip), vehicle: saline); 110 % of control (dose: 160.0 mg/kg/injection, schedule: Q01DX010 (ip), vehicle: saline).
As to `CC1CN=C(c2ccc(NC(=O)c3ccc(C(=O)Nc4ccc(C5=NCC(C)N5)cc4)cc3)cc2)N1` (centres undefined), the T/C is 111 % of control under setting [5]; 111 % of control (dose: 15.0 mg/kg/injection, schedule: Q01DX010 (ip), vehicle: saline); 111 % of control (dose: 22.0 mg/kg/injection, schedule: Q01DX010 (ip), vehicle: saline); 111 % of control (dose: 33.0 mg/kg/injection, schedule: Q01DX010 (ip), vehicle: saline).
For the molecule `CN(Cc1cnc2nc(N)nc(N)c2n1)c1ccc(C(=O)N[C@@H](CCC(=O)O)C(=O)O)cc1`, the T/C is 122 % of control (dose: 0.19 mg/kg/injection, schedule: Q01DX010 (ip), vehicle: other); 172 % of control and 195 % of control (dose: 0.38 mg/kg/injection, schedule: Q01DX Z (ip), vehicle: saline); 194 % of control (dose: 0.75 mg/kg/injection, schedule: Q01DX010 (ip), vehicle: other); 272 % of control and 277 % of control (dose: 0.75 mg/kg/injection, schedule: Q01DX Z (ip), vehicle: saline); 216 % of control (dose: 1.5 mg/kg/injection, schedule: Q01DX010 (ip), vehicle: other); 213 % of control and 272 % of control (dose: 1.5 mg/kg/injection, schedule: Q01DX Z (ip), vehicle: saline). Further, the T/C is 111 % of control (dose: 3.0 mg/kg/injection, schedule: Q01DX010 (ip), vehicle: other); 90 % of control and 95 % of control (dose: 3.0 mg/kg/injection, schedule: Q01DX Z (ip), vehicle: saline).
`Nc1nc2n[nH]nc2c(=O)[nH]1`: the T/C was 162 % of control (dose: 25.0 mg/kg/injection, schedule: Q01DX010 (ip), vehicle: alkali diluted with saline); 162 % of control (dose: 50.0 mg/kg/injection, schedule: Q01DX010 (ip), vehicle: alkali diluted with saline); 175 % of control (dose: 100.0 mg/kg/injection, schedule: Q01DX010 (ip), vehicle: alkali diluted with saline); 175 % of control (dose: 200.0 mg/kg/injection, schedule: Q01DX010 (ip), vehicle: alkali diluted with saline).
On to `CN(C)c1ccc(/C=C/c2ccnc3ccccc23)cc1`, for which the T/C under setting [6] was 100 % of control and 111 % of control; the T/C under setting [5] was 100 % of control and 111 % of control; the T/C under setting [4] is 90 % of control and 94 % of control; the T/C under setting [3] was 116 % of control.
`O=c1[nH]cc(F)c(=O)[nH]1`: the T/C was 120 % of control under setting [6]; 150 % of control and 183 % of control under setting [5]; 170 % of control and 222 % of control under setting [4]; 95 % of control and 111 % of control under setting [3].
With `CS(=O)(=O)OCCCl`, the T/C was 105 % of control under setting [7]; 110 % of control and 111 % of control under setting [8]; 111 % of control and 115 % of control under setting [9]; 110 % of control and 122 % of control under setting [10].
Take `CCOC(=O)NP(=O)(N1CC1(C)C)N1CC1(C)C` (centres undefined): the T/C is 110 % of control (dose: 31.3 mg/kg/injection, schedule: Q01DX010 (ip), vehicle: saline); 160 % of control under setting [11]; 190 % of control under setting [12]; 160 % of control under setting [13].
As to `[I][Hg][CH2]C1COC([CH2][Hg][I])CO1` (centres undefined), the T/C reads like this: (dose: 0.78 mg/kg/injection, schedule: Q01DX010 (ip), vehicle: saline) 91 % of control; (dose: 1.56 mg/kg/injection, schedule: Q01DX010 (ip), vehicle: saline) 95 % of control; (dose: 3.13 mg/kg/injection, schedule: Q01DX010 (ip), vehicle: saline) 91 % of control.
Regarding `CN(C)CC(=O)c1ccc(O)c(O)c1`, the T/C was 113 % of control under setting [2]; 113 % of control (dose: 300.0 mg/kg/injection, schedule: Q01DX010 (ip), vehicle: saline); 113 % of control (dose: 450.0 mg/kg/injection, schedule: Q01DX010 (ip), vehicle: saline).
On to `N=[N+]=CC(=O)OCC(N)C(=O)O` (centres undefined), for which the T/C by setting is: (dose: 12.5 mg/kg/injection, schedule: Q01DX010 (ip), vehicle: saline) 115 % of control and 116 % of control; under setting [1], 88 % of control.
Take `CN(C)c1nc(N(C)C)nc(N(C)C)n1`: the T/C is 100 % of control and 116 % of control under setting [7]; 100 % of control and 105 % of control under setting [8]; 100 % of control and 111 % of control under setting [9]; 100 % of control and 105 % of control under setting [10].
In the case of `O=c1cn[nH]c(=O)[nH]1`, the T/C was 105 % of control under setting [11]; 111 % of control under setting [12]; 90 % of control and 105 % of control under setting [13]; 88 % of control (dose: 500.0 mg/kg/injection, schedule: Q01DX010 (ip), vehicle: saline).
Take `NC(=O)N(CCCl)N=O`: the T/C reads like this: (dose: 0.5 mg/kg/injection, schedule: Q01DX010 (ip), vehicle: saline) 172 % of control; (dose: 1.0 mg/kg/injection, schedule: Q01DX010 (ip), vehicle: saline) 172 % of control; (dose: 2.0 mg/kg/injection, schedule: Q01DX010 (ip), vehicle: saline) 109 % of control.
In the case of `O=C1C(NC(=O)C2CCCCC2)=C(N2CC2)C(=O)C(NC(=O)C2CCCCC2)=C1N1CC1`, the T/C under setting [2] was 90 % of control.

For the origin of these results see PubChem BioAssay AID338 (DTP/NCI, 2004).
